From ChEMBL document CHEMBL1157539, “Thousands of chemical starting points for antimalarial lead identification” (Nature, 2010)

Tested on: Plasmodium falciparum
Assay: GSK_TCMDC: Inhibition of Plasmodium falciparum 3D7 in whole erythrocytes, using parasite LDH activity as an index of growth.
Type: functional, organism-based
Conditions: Plasmodium falciparum, 3D7

Cc1ccc2nc(C)cc(N/N=C/c3ccccc3[N+](=O)[O-])c2c1
XC50: 0.166 µM

CC1(C)NC(N)=NC(=N)N1OCOc1cc(Cl)c(Cl)cc1Cl
XC50: 0.0032 µM

CC1(C)NC(N)=NC(=N)N1OCCc1ccccc1
XC50: 0.0032 µM

C[C@@H](Nc1nc(NCc2ccccc2)c2sccc2n1)c1ccccc1
XC50: 0.919 µM

COc1cc(C(=O)N2CCN(C(C)C)CC2)ccc1CN(C)CCCN1CCN(c2cccc(Cl)c2Cl)CC1
XC50: 0.776 µM

CCCCCCCc1cc(O)c2c3c(c(=O)oc2c1)CN(C)CC3
XC50: 0.144 µM

N[C@@H](Cc1ccc(O)cc1)C(=O)NC(c1ccccc1)c1c(O)ccc2ccccc12 (some centres undefined)
XC50: 0.694 µM

COc1ccc(S(=O)(=O)NC2CCN(c3ccnc4cc(Cl)ccc34)C2)cc1 (centres undefined)
XC50: 0.493 µM

CC(C)c1cccc(C(C)C)c1NC(=O)NNC(=O)c1ccc(CCN2CCC(c3nc(COCC(F)(F)F)c(-c4ccc(F)cc4)o3)CC2)cc1
XC50: 1.09 µM

CC[C@H]1CN2CC[C@H]1C[C@H]2[C@H](O)c1cc(-c2cccc(Cl)c2)nc2ccc(OC)cc12
XC50: 0.168 µM

CCOC(=O)C1=C(C)NC(Cn2ccnc2)=C(C(=O)OCC)C1c1ccc(C(C)(C)C)cc1 (centres undefined)
XC50: 0.807 µM

OC(CNc1ccnc(Nc2cccc(OCCCN3CCOCC3)c2)n1)c1ccccc1 (centres undefined)
XC50: 0.924 µM

CCCCNCc1ccc(-c2nc(CN(CCCn3ccnc3)C(=O)C3COc4ccccc4O3)cs2)cc1 (centres undefined)
XC50: 0.892 µM

COc1cc(C(=O)NC2CCN(Cc3ccccc3)CC2)ccc1-c1nc2c(Cl)cc(C(F)(F)F)cc2[nH]1
XC50: 0.67 µM

COc1ccc(-c2cccc(NC(=O)c3cccc(C#N)c3)c2)cc1CN1CCNCC1
XC50: 0.728 µM

CC(=O)N1N=C(c2ccccc2)Sc2c1nc(-c1ccc(Cl)cc1)n2C(C)=O
XC50: 0.986 µM

Cc1cc(O)c2c(c1)OC(C)(C)C=C2C1=CCN(Cc2ccccc2)CC1
XC50: 0.791 µM

O=C(C1CCN(c2nnnn2-c2ccccc2)CC1)N1CCc2ccccc2C1
XC50: 0.712 µM

COc1cc2c(cc1C(F)(F)F)N(C(=O)Nc1cc(-c3ccncc3)cc(-c3cccnc3)c1)CC2
XC50: 0.619 µM

CS(=O)(=O)NCCCNCc1cccc(-c2ccc(-c3nc4ccccc4[nH]3)s2)c1
XC50: 1.08 µM

O=C(NCCN1CCOCC1)c1csc(C2CCCN(C(=O)c3ccc(O)c(-c4cc(Cl)cc(Cl)c4)c3)C2)n1 (centres undefined)
XC50: 1.03 µM

Cc1ccc(/C=C/C(=O)NCCCCCN2CCN(C(=O)Nc3ccc(Cl)c(C(F)(F)F)c3)CC2)cc1
XC50: 1.11 µM

O=C(NCc1ccc(Cl)c(Cl)c1)c1ccc(-c2nc3ccc(F)cc3[nH]2)cc1
XC50: 1.03 µM

COc1ccc(NC(=O)[C@H](Cc2ccccc2)Nc2nc(NCCN3CCCC3)ncc2C)cc1
XC50: 0.988 µM

O=C(NC1CCCC1)c1cc2c(=O)n3ccccc3nc2[nH]/c1=N/CCc1ccccc1
XC50: 0.649 µM

CC(C)CN1C(=O)C(c2ccc(F)c(F)c2)=C(O)C1c1ccccc1 (centres undefined)
XC50: 0.185 µM

Cc1cccc2nc(-c3cccc(-c4ccc(NC(=O)c5cnccc5C(F)(F)F)cc4)c3)[nH]c12
XC50: 0.695 µM

O=C(Nc1cccc(C(F)(F)F)c1)N1CCOC(CCN2CCC3(CCc4ccccc43)CC2)(c2ccc(Cl)c(Cl)c2)C1 (centres undefined)
XC50: 0.736 µM

COc1cc(OC)c2c(C)cc(NCCCN3CCOCC3)nc2c1
XC50: 1.07 µM

Cc1cccc(N2C(N)=NC(N)=NC2(C)C)c1C
XC50: 0.759 µM

CCCc1c(Cl)cc(CNCCCNc2nc3ccncc3[nH]2)cc1Cl
XC50: 0.744 µM

COC(=O)C(=O)c1c(-c2ccccc2)c(-c2ccc(OC)c(OC)c2)c2c3cc(OC)c(OC)cc3ccn12
XC50: 0.636 µM

O=C(CC1CCCC1)Nc1ccc2c(c1)CCC2
XC50: 0.868 µM

CC(C)C(=O)Nc1c(F)cc(F)cc1CCc1ccc(O)cc1
XC50: 0.504 µM

CCc1c(CCNCCCCCCNCc2ccc3c(c2CC)OCO3)ccc(OC)c1OC
XC50: 0.246 µM

Cc1ccc(Oc2ncccc2C(=O)Nc2cccc3cccnc23)c(C)c1
XC50: 0.225 µM

O=C(c1cc(-c2cccs2)n[nH]1)N1CCN(S(=O)(=O)c2ccc(Cl)s2)CC1
XC50: 0.868 µM

Cc1cccc2nc(-c3cccc(-c4ccc(NC(=O)CS(C)(=O)=O)cc4)c3)[nH]c12
XC50: 1 µM

O=C1Nc2cccc3c2C1(CCCN1CCC(c2c[nH]c4cc(C(F)(F)F)ccc24)CC1)CCC3 (centres undefined)
XC50: 0.961 µM
